Experimental data reported in BindingDB's records for doi:10.1016/j.bmcl.2003.08.056 (Merck Research Laboratories, 2003).

Columns and labels:
[1] = target: T1, cGMP-inhibited 3',5'-cyclic phosphodiesterase 3A [388-1112] (Homo sapiens, UniProt Q14432); assay: PDE SPA Enzyme Inhibition Assay
T1 construct: 388-1112
Experimental: (§1) PDE activity was monitored by measuring the hydrolysis of [3H]-cAMP to [3H]-AMP using scintillation proximity assay (SPA). [3H]-AMP was captured by the SPA beads, and quantified on a TopCount plate reader. Data was analyzed in Graph Pad Prism software.

[2] = target: T2, cGMP-inhibited 3',5'-cyclic phosphodiesterase 3B [387-1112] (Homo sapiens, UniProt Q13370); assay: PDE SPA Enzyme Inhibition Assay
T2 construct: 387-1112
Experimental: as §1

T2 sequence (Q13370 387-1112): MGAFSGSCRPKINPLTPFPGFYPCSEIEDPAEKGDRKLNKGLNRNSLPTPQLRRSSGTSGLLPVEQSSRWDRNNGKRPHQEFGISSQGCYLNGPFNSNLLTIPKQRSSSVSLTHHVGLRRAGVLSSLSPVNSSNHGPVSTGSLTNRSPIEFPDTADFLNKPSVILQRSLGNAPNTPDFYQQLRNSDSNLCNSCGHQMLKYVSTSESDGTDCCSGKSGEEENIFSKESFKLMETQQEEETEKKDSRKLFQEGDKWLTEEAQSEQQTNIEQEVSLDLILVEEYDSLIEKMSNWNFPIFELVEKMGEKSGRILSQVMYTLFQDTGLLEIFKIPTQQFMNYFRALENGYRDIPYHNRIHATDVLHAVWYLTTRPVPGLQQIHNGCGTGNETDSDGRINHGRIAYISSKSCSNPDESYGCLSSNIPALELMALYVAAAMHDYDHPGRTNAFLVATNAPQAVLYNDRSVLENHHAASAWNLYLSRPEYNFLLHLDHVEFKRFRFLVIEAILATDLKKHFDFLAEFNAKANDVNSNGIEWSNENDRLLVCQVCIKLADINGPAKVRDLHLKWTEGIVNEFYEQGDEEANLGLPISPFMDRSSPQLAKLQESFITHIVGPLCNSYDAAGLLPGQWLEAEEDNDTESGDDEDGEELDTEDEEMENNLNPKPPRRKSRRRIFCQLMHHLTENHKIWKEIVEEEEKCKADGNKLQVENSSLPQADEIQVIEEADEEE
T1 sequence (Q14432 388-1112): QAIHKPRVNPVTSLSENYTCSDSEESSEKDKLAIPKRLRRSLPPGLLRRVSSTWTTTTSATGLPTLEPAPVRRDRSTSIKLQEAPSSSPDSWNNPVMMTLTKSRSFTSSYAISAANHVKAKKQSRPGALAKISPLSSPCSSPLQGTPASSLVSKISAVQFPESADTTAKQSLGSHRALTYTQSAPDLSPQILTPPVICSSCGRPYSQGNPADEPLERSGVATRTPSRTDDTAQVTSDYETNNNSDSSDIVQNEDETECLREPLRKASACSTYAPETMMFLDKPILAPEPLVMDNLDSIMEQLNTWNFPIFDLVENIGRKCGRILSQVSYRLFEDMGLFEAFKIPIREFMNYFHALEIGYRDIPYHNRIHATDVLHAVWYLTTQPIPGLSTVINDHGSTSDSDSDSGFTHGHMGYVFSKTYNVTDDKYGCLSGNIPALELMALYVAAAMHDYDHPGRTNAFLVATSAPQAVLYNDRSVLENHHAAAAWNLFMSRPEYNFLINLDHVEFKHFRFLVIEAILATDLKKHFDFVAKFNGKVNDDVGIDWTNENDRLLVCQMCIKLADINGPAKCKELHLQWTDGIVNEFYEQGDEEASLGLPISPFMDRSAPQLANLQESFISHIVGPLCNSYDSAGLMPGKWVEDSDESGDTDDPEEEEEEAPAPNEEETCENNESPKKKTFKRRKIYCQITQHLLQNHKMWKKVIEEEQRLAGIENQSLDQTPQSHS

| SMILES | IC50 [1] | IC50 [2] | IC50 ([2]; pH 7.5, 22 °C) |
| --- | --- | --- | --- |
| CC1(C)C(=O)NN=C1c1ccc(NC2=C(Cc3cccc(C#N)c3)C(=O)CCC2)c(F)c1F [3-[(2-{[4-(4,4-dimethyl-5-oxo-4,5-dihydro-1H-pyrazol-3-yl)-2,3-difluorophenyl]amino}-6-oxocyclohex-1-en-1-yl)methyl]benzonitrile] | 7.6 nM | 0.33 nM | – |
| CC1CC(=O)NN=C1c1ccc(NC2=C(Cc3ccccc3)C(=O)CCC2)c(F)c1 (stereo not given) [6-{4-[(2-benzyl-3-oxocyclohex-1-en-1-yl)amino]-3-fluorophenyl}-5-methyl-2,3,4,5-tetrahydropyridazin-3-one] | 1.2 nM | 0.26 nM | – |
| Cc1cc(C2=NNC(=O)CC2C)ccc1NC1=C(Cc2ccccc2)C(=O)CCC1 (stereo not given) [6-{4-[(2-benzyl-3-oxocyclohex-1-en-1-yl)amino]-3-methylphenyl}-5-methyl-2,3,4,5-tetrahydropyridazin-3-one] | 3.7 nM | 0.61 nM | – |
| C[C@@H]1CC(=O)NN=C1c1ccc(NC2=C(Cc3cccc(-c4cccc([N+](=O)[O-])c4)c3)C(=O)CCC2)cc1 [(5R)-5-methyl-6-{4-[(2-{[3-(3-nitrophenyl)phenyl]methyl}-3-oxocyclohex-1-en-1-yl)amino]phenyl}-2,3,4,5-tetrahydropyridazin-3-one] | 0.11 nM | – | 0.049 nM |
| C[C@@H]1CC(=O)NN=C1c1ccc(NC2=C(Cc3cccc(-c4ccsc4)c3)C(=O)CCC2)cc1 [(5R)-5-methyl-6-{4-[(3-oxo-2-{[3-(thiophen-3-yl)phenyl]methyl}cyclohex-1-en-1-yl)amino]phenyl}-2,3,4,5-tetrahydropyridazin-3-one] | 0.11 nM | – | 0.068 nM |
